Several values for one entry are separate records, joined by “and”; a condition that tells them apart may be missing. Equal entries are not always repeated. Activity calls are given as the source filed them.
Legend:
Assay type in all cases: functional
[1] = biological target: DNA dC->dU-editing enzyme APOBEC-3G (Homo sapiens, UniProt Q9HC16); assay: Dose Response confirmation of small molecule APOBEC3G DNA Deaminase Inhibitors via a fluorescence-based single-stranded DNA deaminase assay. [Related pubchem assays (depositor defined):AID493012, AID493028]
[2] = biological target: T1, Apoptotic protease-activating factor 1 (Homo sapiens, UniProt O14727); assay: SAR analysis of small molecule Activators of Apaf-1 in a Fluorescent assay.; settings: read-out: EC50_Mean
T1 sequence (O14727 whole entry): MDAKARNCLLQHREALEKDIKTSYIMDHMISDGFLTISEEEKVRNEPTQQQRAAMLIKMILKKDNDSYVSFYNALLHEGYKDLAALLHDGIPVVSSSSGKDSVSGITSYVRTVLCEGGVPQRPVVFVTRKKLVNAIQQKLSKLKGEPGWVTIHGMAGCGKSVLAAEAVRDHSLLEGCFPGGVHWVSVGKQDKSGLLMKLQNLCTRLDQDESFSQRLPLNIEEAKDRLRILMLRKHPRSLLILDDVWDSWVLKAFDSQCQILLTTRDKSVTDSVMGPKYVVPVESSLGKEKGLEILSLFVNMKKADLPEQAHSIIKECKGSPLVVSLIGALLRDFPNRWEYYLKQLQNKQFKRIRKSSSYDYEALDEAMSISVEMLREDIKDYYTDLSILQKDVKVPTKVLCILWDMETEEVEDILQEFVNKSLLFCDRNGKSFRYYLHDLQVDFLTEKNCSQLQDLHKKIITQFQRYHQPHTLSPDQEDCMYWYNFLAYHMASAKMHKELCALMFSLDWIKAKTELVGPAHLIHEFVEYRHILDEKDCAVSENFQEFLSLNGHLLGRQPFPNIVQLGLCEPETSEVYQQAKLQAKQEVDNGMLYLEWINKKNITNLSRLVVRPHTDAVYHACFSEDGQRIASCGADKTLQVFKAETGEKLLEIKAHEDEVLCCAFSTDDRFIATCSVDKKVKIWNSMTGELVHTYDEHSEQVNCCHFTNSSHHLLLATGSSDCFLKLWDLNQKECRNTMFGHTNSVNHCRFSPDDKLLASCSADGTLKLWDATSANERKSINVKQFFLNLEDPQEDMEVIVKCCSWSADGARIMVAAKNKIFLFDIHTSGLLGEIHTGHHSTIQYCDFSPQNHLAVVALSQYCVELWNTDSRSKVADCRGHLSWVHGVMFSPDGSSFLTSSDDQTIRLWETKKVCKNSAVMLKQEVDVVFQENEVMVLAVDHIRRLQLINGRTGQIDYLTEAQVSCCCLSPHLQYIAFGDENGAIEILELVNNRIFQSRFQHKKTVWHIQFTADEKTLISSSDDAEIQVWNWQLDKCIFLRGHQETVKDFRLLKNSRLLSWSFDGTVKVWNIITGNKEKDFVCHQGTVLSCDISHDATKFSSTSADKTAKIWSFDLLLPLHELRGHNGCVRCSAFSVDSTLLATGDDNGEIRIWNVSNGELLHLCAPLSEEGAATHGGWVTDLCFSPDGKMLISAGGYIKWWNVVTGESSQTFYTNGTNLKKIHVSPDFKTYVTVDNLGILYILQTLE

[3] = SAR analysis of small molecule activators of Apaf-1 using a LZ-Caspase-9/Caspase-3 Fluorescent Selectivity assay - Set 2.; settings: read-out: EC50_Mean
[4] = biological target: T1, Apoptotic protease-activating factor 1; assay: SAR analysis of small molecule Activators of Apaf-1 in a Fluorescent assay - set 2.; settings: read-out: EC50_Mean
[5] = biological target: Multidrug resistance protein CDR2 (Candida albicans (strain SC5314 / ATCC MYA-2876) (Yeast), UniProt P78595); assay: CaCDR2 efflux pump inhibitors in yeast, dose response, S. cerevisiae AD1-8u, singleplex, Cherry Pick1 hits (AID 588604)
[6] = biological target: Protein disulfide-isomerase (Homo sapiens, UniProt P07237); assay: PDI inhibitors, insulin aggregation turbidity, dose response, biochemical, absorbance, cherry-picked samples (AID 602350)
[7] = biological target: Melanin-concentrating hormone receptor 1 (Homo sapiens, UniProt Q99705); assay: Late-stage fluorescence-based counterscreen for antagonists of the G-protein coupled receptor 7 (GPR7): cell-based dose response assay to identify antagonists of the melanin-concentrating hormone receptor 1 (MCHR1) Set 5.
[8] = biological target: T2, Neuropeptides B/W receptor type 1 (Homo sapiens, UniProt P48145); assay: GPR7 antagonist potency, late-stage follow-up, cell-based, fluorescence, dose response, set 5 (AID 588566)
T2 sequence (P48145 whole entry): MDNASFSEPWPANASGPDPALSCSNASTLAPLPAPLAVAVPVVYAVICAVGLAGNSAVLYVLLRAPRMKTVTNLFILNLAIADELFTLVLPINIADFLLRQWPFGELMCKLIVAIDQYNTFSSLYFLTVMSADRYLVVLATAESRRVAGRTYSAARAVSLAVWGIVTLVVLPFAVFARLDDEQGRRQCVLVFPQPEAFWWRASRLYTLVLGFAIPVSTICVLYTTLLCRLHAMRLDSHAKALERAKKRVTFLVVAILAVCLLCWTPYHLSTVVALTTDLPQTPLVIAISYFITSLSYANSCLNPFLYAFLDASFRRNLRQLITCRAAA

Melanocortin receptor 4 = Melanocortin receptor 4 (Homo sapiens, UniProt P32245); assay: MC4R antagonist potency on cAMP, dose response, cell-based, TR-FRET, biased antagonists (AID 602298);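 further: antagonist potency against agonist-stimulated cAMP production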
[9] = nonselective inhibitors of cellular cAMP signaling, dose response, counter-screen for MC4R biased antagonist project, cell-based, TR-FRET cAMP detection (AID 602305);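 further: U2OS cells stimulated with forskolin near its EC80 as the cAMP inducer; potency is for inhibition of forskolin-stimulated cAMP signaling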

Sequence of Protein disulfide-isomerase (P07237 whole entry): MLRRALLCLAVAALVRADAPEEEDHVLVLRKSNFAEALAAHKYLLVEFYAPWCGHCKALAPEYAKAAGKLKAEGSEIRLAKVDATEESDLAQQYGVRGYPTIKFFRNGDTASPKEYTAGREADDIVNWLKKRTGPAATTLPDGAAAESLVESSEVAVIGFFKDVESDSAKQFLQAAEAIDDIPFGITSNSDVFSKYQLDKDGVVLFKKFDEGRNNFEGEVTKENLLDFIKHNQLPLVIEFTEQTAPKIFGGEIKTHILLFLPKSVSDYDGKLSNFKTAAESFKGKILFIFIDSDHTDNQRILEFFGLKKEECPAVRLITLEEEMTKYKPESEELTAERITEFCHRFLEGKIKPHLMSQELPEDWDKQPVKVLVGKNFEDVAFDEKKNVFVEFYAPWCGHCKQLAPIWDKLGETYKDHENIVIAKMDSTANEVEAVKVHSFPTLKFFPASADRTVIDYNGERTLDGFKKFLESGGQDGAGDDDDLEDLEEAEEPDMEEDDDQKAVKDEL
Sequence of Melanocortin receptor 4 (P32245 whole entry): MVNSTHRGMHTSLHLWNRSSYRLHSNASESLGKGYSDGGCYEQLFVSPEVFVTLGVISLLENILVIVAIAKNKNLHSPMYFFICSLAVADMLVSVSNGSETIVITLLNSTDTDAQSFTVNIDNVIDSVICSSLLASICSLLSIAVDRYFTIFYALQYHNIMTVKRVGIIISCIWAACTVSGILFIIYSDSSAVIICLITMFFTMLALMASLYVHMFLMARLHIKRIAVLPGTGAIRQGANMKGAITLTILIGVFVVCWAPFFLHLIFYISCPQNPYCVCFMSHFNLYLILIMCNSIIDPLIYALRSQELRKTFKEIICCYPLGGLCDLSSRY
Sequence of DNA dC->dU-editing enzyme APOBEC-3G (Q9HC16 whole entry): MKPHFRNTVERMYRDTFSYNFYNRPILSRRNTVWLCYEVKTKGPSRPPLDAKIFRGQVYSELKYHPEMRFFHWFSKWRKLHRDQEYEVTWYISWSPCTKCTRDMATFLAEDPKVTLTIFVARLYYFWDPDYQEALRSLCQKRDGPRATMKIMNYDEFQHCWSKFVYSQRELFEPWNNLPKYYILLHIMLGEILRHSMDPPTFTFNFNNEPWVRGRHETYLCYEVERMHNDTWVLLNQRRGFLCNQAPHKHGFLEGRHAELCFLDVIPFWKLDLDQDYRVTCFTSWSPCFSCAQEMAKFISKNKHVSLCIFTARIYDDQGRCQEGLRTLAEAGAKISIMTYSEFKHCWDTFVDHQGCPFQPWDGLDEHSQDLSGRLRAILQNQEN
Sequence of Melanin-concentrating hormone receptor 1 (Q99705 whole entry): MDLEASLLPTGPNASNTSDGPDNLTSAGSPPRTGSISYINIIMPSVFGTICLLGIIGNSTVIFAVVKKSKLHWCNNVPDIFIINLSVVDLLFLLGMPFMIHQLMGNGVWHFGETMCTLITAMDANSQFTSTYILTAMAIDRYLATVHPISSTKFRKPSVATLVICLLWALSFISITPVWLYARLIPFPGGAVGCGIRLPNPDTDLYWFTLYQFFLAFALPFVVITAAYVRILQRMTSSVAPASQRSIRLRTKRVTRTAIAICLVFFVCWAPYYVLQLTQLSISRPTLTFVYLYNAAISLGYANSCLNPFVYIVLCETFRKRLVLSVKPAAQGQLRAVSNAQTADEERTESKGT
Sequence of Multidrug resistance protein CDR2 (P78595 whole entry): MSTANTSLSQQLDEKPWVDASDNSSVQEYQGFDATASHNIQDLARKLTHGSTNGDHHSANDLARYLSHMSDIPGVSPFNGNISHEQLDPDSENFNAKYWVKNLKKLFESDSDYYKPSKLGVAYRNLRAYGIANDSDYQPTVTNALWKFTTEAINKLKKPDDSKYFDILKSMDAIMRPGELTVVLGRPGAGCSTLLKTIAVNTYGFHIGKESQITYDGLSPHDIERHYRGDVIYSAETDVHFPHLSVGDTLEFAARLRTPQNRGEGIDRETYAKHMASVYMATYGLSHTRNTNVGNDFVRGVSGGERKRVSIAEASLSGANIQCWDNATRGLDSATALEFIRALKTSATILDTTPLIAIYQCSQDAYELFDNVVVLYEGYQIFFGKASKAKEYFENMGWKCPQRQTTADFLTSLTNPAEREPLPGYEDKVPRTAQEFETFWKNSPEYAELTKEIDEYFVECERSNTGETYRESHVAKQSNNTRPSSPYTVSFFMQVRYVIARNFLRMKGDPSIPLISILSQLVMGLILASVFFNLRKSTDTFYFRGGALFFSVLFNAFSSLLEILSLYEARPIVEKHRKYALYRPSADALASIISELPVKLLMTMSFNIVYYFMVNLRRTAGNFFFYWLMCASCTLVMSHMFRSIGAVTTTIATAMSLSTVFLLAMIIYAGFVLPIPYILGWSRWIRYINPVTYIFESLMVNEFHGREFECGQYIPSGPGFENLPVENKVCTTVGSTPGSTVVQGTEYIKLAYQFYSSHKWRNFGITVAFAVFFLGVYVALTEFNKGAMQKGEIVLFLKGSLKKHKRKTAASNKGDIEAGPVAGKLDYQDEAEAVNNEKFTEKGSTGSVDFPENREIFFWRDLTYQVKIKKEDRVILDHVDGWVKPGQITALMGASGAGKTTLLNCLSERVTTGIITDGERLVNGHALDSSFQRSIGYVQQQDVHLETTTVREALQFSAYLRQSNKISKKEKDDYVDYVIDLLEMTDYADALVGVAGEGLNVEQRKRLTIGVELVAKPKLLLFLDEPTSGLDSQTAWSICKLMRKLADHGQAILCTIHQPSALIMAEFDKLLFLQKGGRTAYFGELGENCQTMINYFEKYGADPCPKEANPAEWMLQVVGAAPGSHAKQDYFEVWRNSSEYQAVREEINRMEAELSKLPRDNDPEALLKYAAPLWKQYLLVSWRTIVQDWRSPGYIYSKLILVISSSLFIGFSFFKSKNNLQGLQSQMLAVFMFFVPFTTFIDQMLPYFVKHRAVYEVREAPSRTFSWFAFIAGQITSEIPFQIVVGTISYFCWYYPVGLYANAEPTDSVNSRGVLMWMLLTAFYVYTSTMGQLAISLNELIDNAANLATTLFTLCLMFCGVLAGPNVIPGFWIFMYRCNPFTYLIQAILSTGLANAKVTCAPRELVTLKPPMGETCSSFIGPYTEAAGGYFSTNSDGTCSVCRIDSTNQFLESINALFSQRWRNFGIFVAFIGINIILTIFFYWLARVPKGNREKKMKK

In the case of `O=C(O)C1CC(c2ccc(F)cc2)=NO1` (stereo not given), the IC50 [1] is reported as 10.9 µM (active), the EC50 [2] is reported as 6.69 µM (active) and the EC50 [3] is reported as > 100 µM (inactive) and > 99 µM (inactive). The EC50 [4] was 6.39 µM (active) and 3.86 µM (active) and > 99 µM (inactive).
For `COc1ccc2nccc(/C=C/c3ccnc4ccc(OC)cc34)c2c1`, the EC50 [5] was 14 µM (active).
For `C[C@H](CO)N1C[C@H](C)[C@@H](CN(C)S(=O)(=O)c2ccc(F)cc2)Oc2ccc(NC(=O)Cc3cn(C)c4ccccc34)cc2C1=O`, the AC50 [6] was 19.5 µM (active).
With `CCOc1ccc(Sc2cnn(Cc3cccc4ccccc34)c(=O)c2Cl)cc1` the IC50 [7] was > 20 µM (inactive) and the IC50 [8] was 5 µM (active).
For `Cn1ccs/c1=N\C(=O)c1ccc(S(C)(=O)=O)c([N+](=O)[O-])c1`, the IC50 (Melanocortin receptor 4) was > 64.6 µM (inactive) and the IC50 [9] was > 64.6 µM (inactive).

Reference: ChEMBL document CHEMBL1201862, “PubChem BioAssay data set” (2004)
